From patent US8338616B2, “Thiazoliums and their use for treating protein aging associated diseases” (Beijing Molecule Science And Technology Co., Ltd., priority 2008, dated 2012)

How the values were obtained:
AGEs = settings: studies in rats, beagles (oral) and mice, CN200610002391.6; cited from earlier work
[1] = system: NaCl treated diabetic rats modeled with heart failure; assay: Chronic heart failure, first batch, ultrasonic cardiogram evaluation; type: in vivo, rat; settings: 10th week of administration; valsartan 10 mg/kg, compound A 18 mg/kg ig
Experimental: The pharmacodynamic evaluation was conducted by using a noninvasive ultrasonic cardiogram method.
Evaluation indexes: (1) morphology indexes: left ventricular posterior wall dimensions (LVPWd), left ventricular diastasis internal diameter (LVDd), end systolic diameter (LVDs); (2) functional indexes: ejection fraction (EF), shortening fraction (FS), ventricular early blood flow filling rate (E), atrial filling rate (A) and ratio of E/A; Doppler tissue image; at cardiac apical four chamber view, the valve ring of anterior mitral valve was used as sampling point, peak early diastolic velocity (Ea peak), peak late diastolic velocity (Aa peak), and Ea/Aa ratio reflected the systolic and diastolic motion of the whole left ventricle.
SPSS statistic software was used to analyze and treat data, and all data were expressed in mean±standard deviation (Mean±SD).

| SMILES | breaking effect on AGEs (AGEs) | LVDd and LVDs vs model [1] | PWd vs model [1] |
| --- | --- | --- | --- |
| Cc1csc[n+]1CC(=O)OCc1ccccc1.[Br-] [3-benzyloxycarbonylmethyl-4-methyl-thiazole-3-bromide] | excellent breaking effect on AGEs |  |  |
| CCCCC(=O)N(Cc1ccc(-c2ccccc2-c2nnn[nH]2)cc1)[C@H](C(=O)O)C(C)C [valsartan, reference compound] |  | slight decrease | slight increase |
